Paper PMC9490236, “Accurate de novo design of membrane-traversing macrocycles” (Cell, 2022)
Where two headings read alike, the source gives them in different places. Where a SMILES comes first, the peptide text is derived from it. [ ]: non-standard residue; d: D form. NMeF = CN[C@@H](Cc1ccccc1)C(=O)O; NMeL = CN[C@@H](CC(C)C)C(=O)O; dNMeL = CN[C@H](CC(C)C)C(=O)O; NMeV = CN[C@H](C(=O)O)C(C)C; dNMeA = CN[C@H](C)C(=O)O

Tests used:
in vitro = conditions: PAMPA, PAMPA_Papp_Avg
Caco-2 cells = experiment: Caco-2 permeability assay (apical to basolateral); assay type: in vitro ADME, human; parameters: Caco_R1 / Caco_R3: unit not given here
Description: (§1) Human colon adenocarcinoma-derived Caco-2 cell line was used as a model system to investigate the intestinal epithelial permeability of our designs. Caco-2 cells were propagated in T125 flasks (Corning, Merck) using Dulbecco’s modified Eagle medium supplemented with 10% (v/v) fetal bovine serum, 1% (v/v) nonessential amino acids, and 1% (v/v) penicillin-streptomycin (Gibco, Thermo Fisher Scientific) at 37°C in an atmosphere of 5% CO2. Cells were subcultured when they reached 80% confluence.
(§2) The permeability of designed peptides was evaluated using an accelerated 6-day Caco-2 permeability assay as described previously ([Sevin et al., 2013]). In brief, cells were seeded into the 12-well Transwell plates with 0.4 μm polyester membrane inserts (Corning, Merck) to give 4.0 × 10^5 cells/well. The complete assay medium contained Dulbecco’s modified Eagle medium supplemented with 10% (v/v) fetal bovine serum, 1% (v/v) nonessential amino acids, and 0.4 μg/mL puromycin. The medium in plates was renewed every second day. The inserts received 0.75 mL of assay medium in the upper compartment (apical chamber) and 1.5 mL in the bottom compartment (basolateral chamber) individually. After 6-day incubation or until the cells formed monolayers, the medium in the apical and basolateral chamber was replaced with peptide solutions at 50 μM or Hanks' Balanced Salt Solution (HBSS), separately. The plates were incubated for 90 min at 37°C on an orbital shaker (60 rpm). The peptide concentration of solutions in the apical and basolateral compartments was subsequently quantified using LC-MS (Qstar Elite, AB Sciex Australia) to evaluate the transmembrane flux of peptides in the apical-to-basolateral direction. Membrane integrity of the Caco-2 cell monolayer was validated using trans-epithelial electrical resistance (TEER) measurements before and after the assays. Atenolol and quinidine were included as negative and positive controls in all assays.

[1] = Caco-2 permeability assay (apical to basolateral); assay type: in vitro ADME, human; parameters: Caco_R1 / Caco_R3: unit not given here
Description: as §1, §2

[2] = PAMPA
[3] = Caco-2, average of 3 replicates, read-out: Caco_Papp_Average

Row | Compound | Caco_R1 (Caco-2 cells; Caco-2) | Caco_R3 (Caco-2 cells; Caco-2) | Papp A→B ([1]; Caco-2, Caco_Papp_Average) [×10⁻⁶ cm/s] | PAMPA_R1 [2] | PAMPA_R3 [2] | PAMPA_Papp_Avg [2] | Caco_R1 (Caco-2 cells; Caco-2 Papp, replicate 1) | Caco_R3 (Caco-2 cells; Caco-2 Papp, replicate 3) | Papp A→B [1, 3] [×10⁻⁶ cm/s] | other results
1 | CC[C@@H](C)[C@H]1NC(=O)[C@H](Cc2ccccc2)NC(=O)[C@@H](CC(C)C)N(C)C(=O)[C@@H]2CCCN2C(=O)[C@@H](C(C)C)NC(=O)[C@@H](C)N(C)C(=O)[C@H]2CCCN2C(=O)[C@@H](CC(C)C)NC(=O)[C@H](CC(C)C)NC(=O)[C@@H]2CCCN2C1=O [Design D10.30, PRO *DLEU PHE DILE PRO LEU DLEU DPRO *DALA DVAL] (cyclo(F[dI]PL[dL][dP][dNMeA][dV]P[dNMeL])) | 15.3 | 15.5 | 16.1 | 5.23E-06 | 4.05E-06 |  |  |  |  | Papp (in vitro): 4.78 ×10⁻⁶ cm/s; Papp at 90 min, 50 µM ([1]; human, Caco-2): > 10 ×10⁻⁶ cm/s
2 | CC(C)C[C@@H]1C(=O)N(C)[C@@H](CC(C)C)C(=O)N2CCC[C@@H]2C(=O)N[C@H](CC(C)C)C(=O)N[C@H](C)C(=O)N2CCC[C@@H]2C(=O)N2CCC[C@H]2C(=O)N[C@@H](C)C(=O)N[C@H](Cc2ccccc2)C(=O)N[C@H](CC(C)C)C(=O)N[C@@H](C(C)C)C(=O)N1C (single isomer, unassigned) [Design D11.9.p2, VAL *DLEU *LEU DPRO DLEU DALA DPRO PRO ALA DPHE DLEU] | 2.62 | 4.02 | 4.03 | BQL | BQL | BQL |  |  |  | 
3 | CC(C)C[C@@H]1NC(=O)[C@@H]2CCCN2C(=O)[C@@H](Cc2ccccc2)NC(=O)[C@H](C)N(C)C(=O)[C@H](CC(C)C)NC(=O)[C@H](CC(C)C)N(C)C(=O)[C@@H](C)NC(=O)[C@@H](CC(C)C)NC(=O)[C@@H]2CCCN2C(=O)[C@@H](Cc2ccccc2)NC1=O (single isomer, unassigned) [Design D10.2.p2, LEU DPHE PRO DLEU DALA *LEU LEU *ALA DPHE PRO] | 0 | 0 |  | 4.31E-07 | 4.68E-07 | 3.60E-07 |  |  |  | Caco_Papp_Average (Caco-2 cells; Caco-2): 0
4 | CC[C@H](C)[C@@H]1NC(=O)[C@@H](CC(C)C)NC(=O)[C@H](CC(C)C)N(C)C(=O)[C@H](Cc2ccccc2)NC(=O)CN(C)C(=O)[C@@H]2CCCN2C(=O)[C@H](C(C)C)NC(=O)[C@H](Cc2ccccc2)N(C)C(=O)[C@H]2CCCN2C(=O)[C@H](CC(C)C)NC1=O (single isomer, unassigned) [Design D10.1.p2, DLEU ILE LEU DPRO *PHE VAL PRO *GLY PHE *LEU] |  |  |  |  |  |  | 2.58 | 4.01 | 3.6 | 
5 | CC(C)C[C@@H]1NC(=O)[C@@H]2CCCN2C(=O)[C@@H](Cc2ccccc2)NC(=O)[C@H](C)N(C)C(=O)[C@H](CC(C)C)NC(=O)[C@H](CC(C)C)N(C)C(=O)[C@@H](C)NC(=O)[C@@H](CC(C)C)NC(=O)[C@@H]2CCCN2C(=O)[C@@H](Cc2ccccc2)NC1=O (single isomer, unassigned) [Design D10.2.p1, LEU DPHE PRO DLEU DALA *LEU LEU *ALA DPHE PRO] | 8.83 | 11.73 | 9.76 | 4.51E-06 | 3.88E-06 | 3.92E-06 |  |  |  | 
6 | CC(C)C[C@@H]1NC(=O)[C@@H](C(C)C)NC(=O)[C@H](Cc2ccccc2)N(C)C(=O)[C@H]2CCCN2C(=O)[C@H]2CCCN2C(=O)[C@@H](C)NC(=O)[C@H](Cc2ccccc2)N(C)C(=O)[C@H]2CCCN2C(=O)[C@@H](C(C)C)NC(=O)[C@@H]2CCCN2C1=O [Design D10.4, *PHE DVAL LEU PRO DVAL DPRO *PHE DALA DPRO DPRO] (cyclo(LP[dV][dP][NMeF][dA][dP][dP][NMeF][dV])) |  |  |  |  |  |  | 1.39 | 0.49 | 0.627 | 
7 | CC[C@@H](C)[C@H]1NC(=O)[C@@H](CC(C)C)NC(=O)[C@@H](CC(C)C)N(C)C(=O)[C@@H]2CCCN2C(=O)[C@@H](C(C)C)NC(=O)[C@@H](CC(C)C)NC(=O)[C@@H](CC(C)C)N(C)C(=O)[C@@H]2CCCN2C1=O [Design D8.3.p2, DLEU DVAL PRO *DLEU DLEU DILE PRO *DLEU] (cyclo(P[dNMeL][dL][dI]P[dNMeL][dL][dV])) | 4.06 | 1.54 | 2.73 | BQL | BQL | BQL |  |  |  | 
8 | CC[C@@H](C)[C@H]1NC(=O)[C@H](CC(C)C)NC(=O)[C@@H](CC(C)C)NC(=O)[C@H](C(C)C)NC(=O)[C@@H](Cc2ccccc2)N(C)C(=O)[C@@H]2CCCN2C(=O)[C@@H](CC(C)C)NC(=O)[C@H](CC(C)C)NC(=O)[C@H]2CCCN2C1=O (single isomer, unassigned) [Design D9.4.p2, LEU DILE DPRO LEU DLEU PRO *DPHE VAL DLEU] |  |  |  |  |  |  | 3.27 | 2.03 |  | 
9 | CC[C@H](C)[C@@H]1NC(=O)[C@H](Cc2ccccc2)N(C)C(=O)[C@H](CC(C)C)N(C)C(=O)[C@@H](C(C)C)NC(=O)[C@@H](C)NC(=O)[C@@H]2CCCN2C(=O)[C@@H](CC(C)C)NC(=O)[C@@H]2CCCN2C(=O)[C@H](C)NC1=O (single isomer, unassigned) [Design D9.6.p2] |  |  |  |  |  |  | 3.08 | 7.44 |  | 
10 | CC[C@H](C)[C@@H]1NC(=O)[C@@H](C(C)C)NC(=O)[C@@H]2CCCN2C(=O)[C@@H](CC(C)C)N(C)C(=O)[C@@H](C(C)C)NC(=O)[C@H](CC(C)C)N(C)C(=O)[C@H]2CCCN2C(=O)[C@@H](C)NC(=O)[C@H](Cc2ccccc2)N(C)C(=O)[C@H]2CCCN2C1=O (single isomer, unassigned) [Design D10.3.p2, ILE DPRO *PHE DALA DPRO *LEU DVAL *DLEU PRO DVAL] |  |  |  |  |  |  | 4.05 | 2.63 | 4.43 | 
11 | CC[C@@H](C)[C@H]1NC(=O)[C@H](CC(C)C)NC(=O)[C@@H](CC(C)C)NC(=O)[C@H](C(C)C)NC(=O)[C@@H](Cc2ccccc2)N(C)C(=O)[C@@H]2CCCN2C(=O)[C@@H](CC(C)C)NC(=O)[C@H](CC(C)C)NC(=O)[C@H]2CCCN2C1=O (single isomer, unassigned) [Design D9.4.p1, LEU DILE DPRO LEU DLEU PRO *DPHE VAL DLEU] |  |  |  |  |  |  | 3.39 | 6 | 3.76 | 
12 | CC[C@H](C)[C@@H]1NC(=O)[C@H](Cc2ccccc2)N(C)C(=O)[C@H](CC(C)C)N(C)C(=O)[C@@H](C(C)C)NC(=O)[C@@H](C)NC(=O)[C@@H]2CCCN2C(=O)[C@@H](CC(C)C)NC(=O)[C@@H]2CCCN2C(=O)[C@H](C)NC1=O (single isomer, unassigned) [Design D9.6.p1] |  |  |  |  |  |  | 4.759 | 4.47 | 4.51 | 
13 | CC(C)C[C@H]1C(=O)N2CCC[C@@H]2C(=O)N(C)[C@@H](C(C)C)C(=O)N[C@@H](C(C)C)C(=O)N2CCC[C@H]2C(=O)N2CCC[C@@H]2C(=O)N[C@@H](C)C(=O)N[C@H](C(C)C)C(=O)N(C)[C@@H](CC(C)C)C(=O)N[C@@H](C)C(=O)N1C [Design D10.5, PRO DPRO ALA DVAL *LEU ALA *LEU DPRO *VAL VAL] (cyclo(A[NMeL][dP][NMeV]VP[dP]A[dV][NMeL])) |  |  |  |  |  |  | 1.31 | 0.08 | 0.497 | 
